Source: publication PMC2408617, “Gametogenesis in Malaria Parasites Is Mediated by the cGMP-Dependent Protein Kinase” (PLoS Biology, 2008)
Read-outs that look alike come from different tables or passages of the source.

Columns and labels:
[1] = test system: P. falciparum gametocytes (WT / Pfrh3- control); assay: Gametogenesis assay: rounding up, WT/control gametocytes; type: cell-based, Plasmodium falciparum; details: for stimulation of rounding up: live gametocytes, zaprinast in absence of XA
Procedure: (§1) P. falciparum gametocytes were produced from the 3D7 clone in human A+ erythrocytes with 10% human serum (National Blood Service), and enriched using Nycodenz (Nycoprep 1.077; Axis-Shield) centrifugation as previously described. For gametogenesis, cells were resuspended at 5 × 10^6 parasites per millilitre and induced with either 20 μM XA or 25–400 μM zaprinast in complete medium, and a reduction (of >5 °C) in temperature. For gametogenesis assays, 10 min post induction, cells were mounted on a wet smear. […] Test reagents including zaprinast, BAPTA-AM, compound 1, and compound 2 were resuspended in DMSO as stock solutions and diluted in complete medium for gametogenesis assays, with the XA stock resuspended in RPMI 1640. The maximum final DMSO concentration in the gametogenesis medium was 0.4%, which was used as a negative control. […] Compound 1 and compound 2 were added at the point of activation with either XA or zaprinast, whereas cells were preincubated with 100 μM BAPTA-AM as previously described. Statistical multivariate analysis was carried out using Poisson regression (Stata 9.2; StataCorp) to compare the effects of genetic background (mutant vs. WT) and experimental replicate (included as categorical data in the analysis) on the rates of rounding up at individual drug concentrations. For each drug concentration, the mutants were tested separately against the WT control, and the resultant output was anti-logged to give the relative risk (and 95% confidence interval) for rounding up with genetic background.

[2] = test system: P. falciparum gametocytes; assay: Gametogenesis assay: exflagellation; type: cell-based, Plasmodium falciparum; details: for inhibition of exflagellation: gametocytes stimulated with XA or zaprinast
Procedure: as §1

[3] = test system: P. falciparum gametocytes; assay: Gamete emergence from erythrocytes, IFA with anti-Band 3 antibody; type: cell-based, Plasmodium falciparum; details: pretreatment with BAPTA-AM
Excerpt: Figure 2 Intracellular Ca^2+ Is Not Required for the Initial Step of P. falciparum Gametogenesis To investigate the role of intracellular Ca^2+ in rounding up and exflagellation, stage V Pfrh3^− control gametocytes were pretreated with the BAPTA-AM (BP) before stimulation of gametogenesis with either XA or zaprinast (ZP). (A) (Upper panel) Gametocytes were scored as either round or crescent-shaped, and plotted as percentage rounded-up. […] (Lower panel) The number of centres of exflagellation per 10,000 gametocytes was scored. […] (B) Emergence from host erythrocytes before and after stimulation of gametogenesis with or without BAPTA-AM was scored using IFA with an anti-erythrocyte Band 3 monoclonal antibody. The proportion of cells not reacting with the antibody (indicative of complete emergence) was counted and plotted as a percentage.
For IFA, 3 × 10^6 mature P. falciparum gametocytes were fixed in paraformaldehyde according to a method used for P. berghei. Cells were washed thoroughly and allowed to settle on wells coated with 0.01% poly-L-lysine solution. […] Digital images were recorded using a side-mounted 1K 1.3M pixel High Sensitivity AMT Advantage ER CCD camera system.

[4] = test system: native PDE activity in P. falciparum particulate fractions; assay: PDE assay: cGMP hydrolysis by native parasite particulate fractions; type: biochemical, Plasmodium falciparum; details: for IC50: cGMP substrate; for effect on native PDE enzyme activity: parasite particulate fractions
Procedure: PDE activity in native parasite fractions was measured using a modification of a previously published method. Parasites were frozen in liquid nitrogen and stored at −80 °C until use. Parasites were resuspended in 500 μl of lysis buffer (20 mM hepes and 250 mM sucrose [pH 7.0]), subjected to five cycles of freeze–thaw in liquid nitrogen and pelleted at 100,000 g for 30 min. Particulate fractions were resuspended in lysis buffer containing EDTA-free protease inhibitors (Roche). PDE assays were carried out in triplicate wells of a 96-well plate in the presence of [^3H]-labelled cGMP (GE Healthcare) for 30 min at 37 °C. Reactions were terminated by boiling the plate for 1 min, followed by a 3-min centrifugation at 900 g. One unit of alkaline phosphatase was added to each well and incubated for 30 min at 37 °C. [^3H]-labelled guanosine was separated from the radiolabelled cGMP substrate using ion exchange (BioRad AG 1 × 8 resin). Supernatants containing the [^3H]-labelled guanosine product were added to scintillation fluid (Optiphase Supermix; Wallac). Scintillation was measured using a Wallac 1450 Microbeta Liquid Scintillation Counter (Perkin Elmer) and PDE activity was expressed in picomoles cGMP/minute/milligram protein. Inhibition assays were carried out in the presence of compounds dissolved in DMSO. PDE assays for specific activity and IC50 determination were carried out at a native lysate dilution that gave 30% cGMP/cAMP hydrolysis.
Supplementary file pbio.0060139.st001.doc: Table S1 The Effect of PDE Inhibitors on Particulate Fractions Isolated from P. falciparum Sexual and Asexual Blood Stage Parasites IC50 values (the concentration of compound that gave 50% inhibition of native PDE activity) are mean ± SEM in micromolar and were calculated using the Prism software package (GraphPad Software). Percentage inhibition data were fitted to a sigmoidal dose-response curve using nonlinear regression. n.d., not determined; >200, sufficient inhibition was not observed for an IC50 calculation. The specific activity of cGMP hydrolysis measured in the individual life cycle stages (at a substrate concentration of 0.82 μM) is listed in the lower row. Specific activity data are mean ± SEM in picomoles cGMP/minute/milligram. (43 KB DOC) Click here for additional data file.

PfPKGT618Q gametocytes = assay: Gametogenesis assay: rounding up, PfPKGT618Q gametocytes; type: cell-based, Plasmodium falciparum
Procedure: as §1
Supplementary file pbio.0060139.st002.doc: Table S2 Poisson Regression Analysis for Compound 1 Sensitivity of Rounding Up of Both Mutants Compared to WT Each rounding-up measurement was made by counting 200 cells and scoring for rounding up (or not rounding up). At each compound 1 concentration, rounding-up replicate counts for both clones were compared to WT values separately by Poisson regression analysis using the Stata 9.2 package (StataCorp). Where n < 2 (indicated by n.d.), data were excluded from the analysis. Compound 1 concentration (comp1) is shown in micromolar. The p-values from this analysis and the relative risk (RR) of rounding up with genetic background (and 95% confidence intervals [CI]) are shown. (38 KB DOC) Click here for additional data file.

Eimeria = details: cited from earlier work
T. gondii = details: cited from earlier work
[5] = gametocyte particulate fraction, mean, read-out: IC50, inhibition of native PDE activity, Gametocyte
[6] = schizont particulate fraction, read-out: IC50, inhibition of native PDE activity, Schizont
[7] = ring particulate fraction, read-out: IC50, inhibition of native PDE activity, Ring

Structure (SMILES)	IC50 [4, 5]	effect on native PDE enzyme activity [4]	IC50 [4, 6]	IC50 [4, 7]	also measured
CC(=O)OCOC(=O)CN(CC(=O)OCOC(C)=O)c1ccccc1OCCOc1ccccc1N(CC(=O)OCOC(C)=O)CC(=O)OCOC(C)=O [BAPTA-AM]					inhibition of rounding up ([1]; control gametocytes stimulated with XA (or zaprinast)): failed to inhibit the rounding up; inhibition of exflagellation [2]: blocked exflagellation; emergence of gametes from erythrocytes [3]: reduced emergence of gametes from erythrocytes
Cn1c(=O)c2c(ncn2C)n(C)c1=O [Caffeine]	> 200 µM	little or no effect	> 200 µM		
OCCN(CCO)c1nc(N2CCCCC2)c2nc(N(CCO)CCO)nc(N3CCCCC3)c2n1 [Dipyridamole]	> 200 µM		7 µM	6.5 µM	
CCOC(=O)c1cnc2c(cnn2CC)c1NN=C(C)C [Etazolate]			17.6 µM	20.7 µM	
CC(C)Cn1c(=O)n(C)c(=O)c2[nH]cnc21 [IBMX]	> 200 µM	little or no effect	> 200 µM	> 200 µM	
COc1ccc(Cc2nccc3cc(OC)c(OC)cc23)cc1OC [Papaverine]	> 200 µM		173 µM	63.4 µM	
COc1ccc(C2CNC(=O)C2)cc1OC1CCCC1 (stereo not drawn) [Rolipram]	> 200 µM		> 200 µM	> 200 µM	
CCCc1nn(C)c2c(=O)[nH]c(-c3cc(S(=O)(=O)N4CCN(C)CC4)ccc3OCC)nc12 [Sildenafil]	75.6 µM		22.5 µM	19.4 µM	
Cn1c(=O)c2[nH]cnc2n(C)c1=O [Theophylline]	> 200 µM	little or no effect	> 200 µM		
COc1cc2c(cc1OC)-c1c/c(=N\c3c(C)cc(C)cc3C)n(C)c(=O)n1CC2 [Trequinsin]	193 µM		126 µM	26.7 µM	
O=C(O)c1cc(O)c2cccc(O)c2n1 [XA, xanthurenic acid]					stimulation of rounding up [1]: became spherical
CCCOc1ccccc1-c1nc2nn[nH]c2c(=O)[nH]1 [Zaprinast, zaprinast]	33.7 ± 1.3 µM	effective inhibitor	3 ± 1.2 µM	3.5 µM	stimulation of rounding up [1]: stimulated rounding up; level of rounding up induced compared with XA ([1]; zaprinast 400 μM): almost equivalent to those triggered by XA; stimulation of exflagellation ([2]; in absence of XA): triggered both rounding up and exflagellation in a dose-dependent manner; level of exflagellation induced compared with XA ([2]; zaprinast 400 μM): almost equivalent to those triggered by XA
CN(C)Cc1ccn2c(-c3ccnc(N)n3)c(-c3ccc(F)cc3)nc2c1 [compound 2, 4-[7-[(dimethylamino)methyl]-2-(4-fluorophenyl)imidazo[1,2-a]pyridine-3-yl]pyrimidin-2-amine]					inhibitory effects on rounding up of PfPKGT618Q gametocytes (PfPKGT618Q gametocytes; 2 μM, stimulation with zaprinast or XA): absence of inhibitory effects; lower sensitivity of PfPKGT618Q gametocytes than control cells (rounding up) (PfPKGT618Q gametocytes; range of inhibitor concentrations, approximately): 10–20 fold; inhibition of exflagellation [2]: inhibited exflagellation in a dose-dependent manner; difference in sensitivity of exflagellation between control and PfPKGT618Q cell lines ([2]; unpublished data): no significant difference in sensitivity; effect on Eimeria infection in chickens (Eimeria): cure; effect on infection by T. gondii in mice (T. gondii): cure
